Measurements: ChEMBL document CHEMBL5365482, “Rational Design of Sulfonyl-γ-AApeptides as Highly Potent HIV-1 Fusion Inhibitors with Broad-Spectrum Activity” (J Med Chem, 2023)
pIC50: −log10 of the molar value.

Columns and labels:
[1] = Cytotoxicity against human MT2 cells assessed as inhibition of cell growth measured after 3 days by CCK8 assay; type: toxicity, cell-based; conditions: time 3 day
[2] = tested on: Human immunodeficiency virus 1; assay: Antiviral activity against HIV1 IIIB infected in human MT2 cells assessed as inhibition of viral growth incubated for 30 mins by ELISA assay; type: functional, organism-based; conditions: Human immunodeficiency virus 1, IIIB, MT2, 0.5 h
[3] = Selectivity index, ratio of CC50 for human MT2 cells to IC50 for HIV1 IIIB infected in human MT2 cells; type: toxicity, cell-based; conditions: read-out: Ratio CC50/IC50

## CC[C@@H](C)[C@@H](CN(CC(=O)N[C@@H](CCC(=O)O)CN(CC(=O)N[C@H](CO)CN(CC(=O)N[C@@H](CCCCN)CN(CC(=O)N[C@H](CN(CC(=O)N[C@@H](CCC(=O)O)CN(CC(=O)N[C@@H](CC(C)C)CN(CC(N)=O)S(=O)(=O)CC(C)C)S(=O)(=O)c1ccc(C(=O)O)cc1)S(=O)(=O)CC(C)C)[C@H](C)CC)S(=O)(=O)CCN)S(=O)(=O)CC(C)C)S(=O)(=O)c1ccc(C(=O)O)cc1)S(=O)(=O)CC(C)C)NC(=O)CN(C[C@@H](CCCCN)NC(=O)CN(C[C@H](Cc1c[nH]c2ccccc12)NC(=O)CN(C[C@H](CCC(=O)O)NC(=O)CN(C[C@H](Cc1c[nH]c2ccccc12)NC(=O)CN(C[C@H](CCSC)NC(C)=O)S(=O)(=O)CC(C)C)S(=O)(=O)CC(C)C)S(=O)(=O)c1ccc(C(=O)O)cc1)S(=O)(=O)CC(C)C)S(=O)(=O)CCN
[1]
  CC50 at 72 h: > 100 µM
[2]
  pIC50: < 4.00

## CC[C@@H](C)[C@@H](CN(CC(=O)N[C@@H](CCC(=O)O)CN(CC(=O)N[C@@H](Cc1ccc(O)cc1)CN(CC(=O)N[C@@H](CCCCN)CN(CC(=O)N[C@H](CN(CC(=O)N[C@@H](CCC(=O)O)CN(CC(=O)N[C@@H](CC(C)C)CN(CC(N)=O)S(=O)(=O)CC(C)C)S(=O)(=O)c1ccc(C(=O)O)cc1)S(=O)(=O)CC(C)C)[C@H](C)CC)S(=O)(=O)CCN)S(=O)(=O)CC(C)C)S(=O)(=O)c1ccc(C(=O)O)cc1)S(=O)(=O)CC(C)C)NC(=O)CN(C[C@H](CCCCN)NC(=O)CN(C[C@@H](Cc1c[nH]c2ccccc12)NC(=O)CN(C[C@H](CCC(=O)O)NC(=O)CN(C[C@H](Cc1c[nH]c2ccccc12)NC(=O)CN(C[C@H](CCSC)NC(C)=O)S(=O)(=O)CC(C)C)S(=O)(=O)CC(C)C)S(C)(=O)=O)S(=O)(=O)CC(C)C)S(=O)(=O)CCN
[1]
  CC50 at 72 h: > 40 µM
[2]
  pIC50: < 4.40

## CC[C@@H](C)[C@@H](CN(CC(=O)N[C@@H](CCC(=O)O)CN(CC(=O)N[C@@H](CC(C)C)CN(CC(=O)N[C@@H](CCCCN)CN(CC(=O)N[C@@H](C)CN(CC(=O)N[C@@H](CCC(=O)O)CN(CC(=O)N[C@@H](CCCCN)CN(CC(=O)N[C@@H](CCCCN)CN(CC(=O)N[C@@H](CCC(=O)O)CN(CC(=O)N[C@@H](CCC(=O)O)CN(CC(=O)N[C@@H](CC(C)C)CN(CC(=O)N[C@@H](CCCCN)CN(CC(N)=O)S(=O)(=O)CCN)S(=O)(=O)CC(C)C)S(=O)(=O)c1ccc(C(=O)O)cc1)S(=O)(=O)c1ccc(C(=O)O)cc1)S(=O)(=O)CCN)S(=O)(=O)CCN)S(=O)(=O)c1ccc(C(=O)O)cc1)S(C)(=O)=O)S(=O)(=O)CCN)S(=O)(=O)CC(C)C)S(=O)(=O)c1ccc(C(=O)O)cc1)S(=O)(=O)CC(C)C)NC(C)=O
[1]
  CC50 at 72 h: > 40 µM
[2]
  pIC50: < 4.40

## CC[C@H](C)[C@H](NC(=O)[C@H](CC(C)C)NC(=O)[C@H](CCC(=O)O)NC(=O)[C@H](CCC(=O)O)NC(=O)[C@@H](NC(=O)[C@H](CCCCN)NC(=O)[C@H](CCCCN)NC(=O)[C@@H](NC(=O)[C@H](Cc1ccc(O)cc1)NC(=O)[C@H](CCC(=O)O)NC(=O)[C@H](CCC(=O)O)NC(=O)[C@@H](NC(=O)[C@H](CCCCN)NC(=O)[C@H](CCCCN)NC(=O)[C@H](CC(=O)O)NC(=O)[C@H](Cc1cc2ccccc2[nH]1)NC(=O)[C@H](CCC(=O)O)NC(=O)[C@H](CCC(=O)O)NC(=O)[C@H](Cc1cc2ccccc2[nH]1)NC(=O)[C@@H](NC(=O)[C@H](CCSC)NC(C)=O)[C@@H](C)O)[C@@H](C)CC)[C@H](C)O)[C@@H](C)CC)C(=O)N[C@@H](CCCCN)C(=O)N[C@@H](CCCCN)C(=O)N[C@@H](CO)C(N)=O
[2]
  pIC50: 9.00

## CC[C@@H](C)[C@@H](CN(CC(=O)N[C@@H](CCC(=O)O)CN(CC(=O)N[C@@H](CC(C)C)CN(CC(N)=O)S(=O)(=O)CC(C)C)S(C)(=O)=O)S(=O)(=O)CC(C)C)NC(=O)CN(C[C@H](CCCCN)NC(=O)CN(C[C@H](Cc1ccc(O)cc1)NC(=O)CN(C[C@H](CCC(=O)O)NC(=O)CN(C[C@@H](NC(=O)CN(C[C@H](CCCCN)NC(=O)CN(C[C@H](Cc1c[nH]c2ccccc12)NC(=O)CN(C[C@@H](CCC(=O)O)NC(=O)CN(C[C@H](Cc1c[nH]c2ccccc12)NC(=O)CN(C[C@H](CCSC)NC(C)=O)S(=O)(=O)CC(C)C)S(=O)(=O)CC(C)C)S(C)(=O)=O)S(=O)(=O)CC(C)C)S(=O)(=O)CCN)[C@H](C)CC)S(=O)(=O)CC(C)C)S(C)(=O)=O)S(=O)(=O)CC(C)C)S(=O)(=O)CCN
[1]
  CC50 at 72 h: > 100 µM
[2]
  pIC50: < 4.00

## CC[C@@H](C)[C@@H](CN(CC(=O)N[C@@H](CCC(=O)O)CN(CC(=O)N[C@@H](CC(C)C)CN(CC(N)=O)S(=O)(=O)CC(C)C)S(C)(=O)=O)S(=O)(=O)CC(C)C)NC(=O)CN(C[C@H](CCCCN)NC(=O)CN(C[C@H](Cc1ccc(O)cc1)NC(=O)CN(C[C@H](CCC(=O)O)NC(=O)CN(C[C@@H](NC(=O)CN(C[C@H](CCCCN)NC(=O)CN(C[C@H](Cc1c[nH]c2ccccc12)NC(=O)CN(C[C@H](CCC(=O)O)NC(=O)CN(C[C@H](Cc1c[nH]c2ccccc12)NC(=O)CN(C[C@H](CCSC)NC(C)=O)S(=O)(=O)CC(C)C)S(=O)(=O)CC(C)C)S(=O)(=O)c1ccc(C(=O)O)cc1)S(=O)(=O)CC(C)C)S(=O)(=O)CCN)[C@H](C)CC)S(=O)(=O)CC(C)C)S(=O)(=O)c1ccc(C(=O)O)cc1)S(=O)(=O)CC(C)C)S(=O)(=O)CCN
[1]
  CC50 at 72 h: > 40 µM
[2]
  pIC50: < 4.40

## CC[C@@H](C)[C@@H](CN(CC(=O)N[C@@H](CCC(=O)O)CN(CC(=O)N[C@@H](CC(C)C)CN(CC(=O)N[C@@H](CCCCN)CN(CC(=O)N[C@@H](CC(C)C)CN(CC(N)=O)S(=O)(=O)CC(C)C)S(=O)(=O)CCN)S(=O)(=O)CC(C)C)S(=O)(=O)c1ccc(C(=O)O)cc1)S(=O)(=O)CC(C)C)NC(=O)CN(C[C@H](CCCCN)NC(=O)CN(C[C@H](Cc1ccc(O)cc1)NC(=O)CN(C[C@H](CCC(=O)O)NC(=O)CN(C[C@@H](NC(=O)CN(C[C@H](CCCCN)NC(=O)CN(C[C@H](Cc1c[nH]c2ccccc12)NC(=O)CN(C[C@H](CCC(=O)O)NC(=O)CN(C[C@H](Cc1c[nH]c2ccccc12)NC(=O)CN(C[C@H](CCSC)NC(C)=O)S(=O)(=O)c1ccc(OC)cc1)S(=O)(=O)CC(C)C)S(=O)(=O)c1ccc(C(=O)O)cc1)S(=O)(=O)CC(C)C)S(=O)(=O)CCN)[C@H](C)CC)S(=O)(=O)CC(C)C)S(=O)(=O)c1ccc(C(=O)O)cc1)S(=O)(=O)CC(C)C)S(=O)(=O)CCN
[3]
  selectivity ratio: > 6.3
[1]
  CC50 at 72 h: > 100 µM
[2]
  pIC50: 4.80

## CC[C@@H](C)[C@@H](CN(CC(=O)N[C@@H](CCC(=O)O)CN(CC(=O)N[C@@H](CC(C)C)CN(CC(N)=O)S(=O)(=O)CC(C)C)S(=O)(=O)c1ccc(C(=O)O)cc1)S(=O)(=O)CC(C)C)NC(=O)CN(C[C@H](CCCCN)NC(=O)CN(C[C@H](Cc1ccc(O)cc1)NC(=O)CN(C[C@H](CCC(=O)O)NC(=O)CN(C[C@@H](NC(=O)CN(C[C@H](CCCCN)NC(=O)CN(C[C@H](Cc1c[nH]c2ccccc12)NC(=O)CN(C[C@H](CCC(=O)O)NC(=O)CN(C[C@H](Cc1c[nH]c2ccccc12)NC(=O)CN(C[C@H](CCSC)NC(C)=O)S(=O)(=O)CC(C)C)S(=O)(=O)CC(C)C)S(=O)(=O)c1ccc(C(=O)O)cc1)S(=O)(=O)CC(C)C)S(=O)(=O)CCN)[C@H](C)CC)S(=O)(=O)CC(C)C)S(=O)(=O)c1ccc(C(=O)O)cc1)S(C)(=O)=O)S(=O)(=O)CCN
[1]
  CC50 at 72 h: > 100 µM
[2]
  pIC50: < 4.00

## CC[C@@H](C)[C@@H](CN(CC(=O)N[C@@H](CCC(=O)O)CN(CC(=O)N[C@@H](CC(C)C)CN(CC(N)=O)S(=O)(=O)CC(C)C)S(=O)(=O)c1ccc(C(=O)O)cc1)S(=O)(=O)CC(C)C)NC(=O)CN(C[C@H](CCCCN)NC(=O)CN(C[C@H](Cc1ccc(O)cc1)NC(=O)CN(C[C@H](CCC(=O)O)NC(=O)CN(C[C@@H](NC(=O)CN(C[C@H](CCCCN)NC(=O)CN(C[C@H](Cc1c[nH]c2ccccc12)NC(=O)CN(C[C@H](CCC(=O)O)NC(=O)CN(C[C@H](Cc1c[nH]c2ccccc12)NC(C)=O)S(=O)(=O)CC(C)C)S(=O)(=O)c1ccc(C(=O)O)cc1)S(=O)(=O)CC(C)C)S(=O)(=O)CCN)[C@H](C)CC)S(=O)(=O)CC(C)C)S(=O)(=O)c1ccc(C(=O)O)cc1)S(=O)(=O)CC(C)C)S(=O)(=O)CCN
[1]
  CC50 at 72 h: > 100 µM
[2]
  pIC50: < 4.00

## CC[C@@H](C)[C@@H](CN(CC(=O)N[C@@H](CCC(=O)O)CN(CC(=O)N[C@@H](CC(C)C)CN(CC(N)=O)S(=O)(=O)CC(C)C)S(=O)(=O)c1ccc(C(=O)O)cc1)S(=O)(=O)CC(C)C)NC(=O)CN(C[C@H](CCCCN)NC(=O)CN(C[C@H](Cc1ccc(O)cc1)NC(=O)CN(C[C@H](CCC(=O)O)NC(=O)CN(C[C@@H](NC(=O)CN(C[C@H](CCCCN)NC(=O)CN(C[C@H](Cc1c[nH]c2ccccc12)NC(=O)CN(C[C@H](CCC(=O)O)NC(=O)CN(C[C@H](Cc1c[nH]c2ccccc12)NC(=O)CN(C[C@H](CCSC)NC(C)=O)S(=O)(=O)CC(C)C)S(=O)(=O)CC(C)C)S(=O)(=O)c1ccc(C(=O)O)cc1)S(=O)(=O)CC(C)C)S(=O)(=O)CCN)[C@H](C)CC)S(=O)(=O)CC(C)C)S(C)(=O)=O)S(=O)(=O)CC(C)C)S(=O)(=O)CCN
[1]
  CC50 at 72 h: > 40 µM
[2]
  pIC50: < 4.40

## CC[C@@H](C)[C@@H](CN(CC(=O)N[C@@H](CCC(=O)O)CN(CC(=O)N[C@@H](CC(C)C)CN(CC(N)=O)S(=O)(=O)CC(C)C)S(=O)(=O)c1ccc(C(=O)O)cc1)S(=O)(=O)CC(C)C)NC(=O)CN(C[C@H](CCCCN)NC(=O)CN(C[C@H](Cc1ccc(O)cc1)NC(=O)CN(C[C@H](CCC(=O)O)NC(=O)CN(C[C@@H](NC(=O)CN(C[C@H](CCCCN)NC(=O)CN(C[C@H](Cc1c[nH]c2ccccc12)NC(=O)CN(C[C@H](CCC(=O)O)NC(=O)CN(C[C@H](Cc1c[nH]c2ccccc12)NC(=O)CN(C[C@H](CCSC)NC(C)=O)S(C)(=O)=O)S(=O)(=O)CC(C)C)S(=O)(=O)c1ccc(C(=O)O)cc1)S(=O)(=O)CC(C)C)S(=O)(=O)CCN)[C@H](C)CC)S(=O)(=O)CC(C)C)S(=O)(=O)c1ccc(C(=O)O)cc1)S(=O)(=O)CC(C)C)S(=O)(=O)CCN
[3]
  selectivity ratio: > 2.5
[1]
  CC50 at 72 h: > 100 µM
[2]
  pIC50: 4.41
